Where two headings read alike, the source gives them in different places.
Tests used:
[1] = system: induced IgG antibodies by DT-RM4.7/C34 vaccine; experiment: Specificity analysis of antibodies induced by DT-RM4.7/C34 vaccine on glycan microarray; assay type: binding, mouse; conditions: sera of DT-RM4.7/C34-immunized mice; for binding of induced IgG antibodies to glycan: FIG. 14; for binding of induced antibodies to glycan, microarray of STn, DSGG, RM2 antigen, analogs and fragments: FIG. 15
Method: It was observed that these oligosaccharides all contain the same epitope trisaccharide 27 (NeuAcα2→6GlcNAcβ1→3Galβ1→R). To further evaluate the vaccine specificity, a glycan microarray created by STn, DSGG, RM2 antigen, RM2 antigen analogs, and RM2 antigen fragments was constructed (FIG. 15).
Microarrays were printed (BioDot; CartesianTechnologies) by robotic pin (SMP3; TeleChem In-ternational Inc.) deposition of 0.7 nL 100 μM amine-containing glycans in printing buffer (300 mM phosphate buffer, pH 8.5, containing 0.01% TritonX-100) from a […] microtiter plate onto N-Hydroxysuccinimide (NHS)-coated glass slides. Subsequently, a 96-glycan microarray (Fig. S2) was used to determine the polyclonal Ab spectrum of DT-RM series-induced antiserum. Printed slides were allowed to react in an atmosphere of 80% humidity for 1 h followed by desiccation overnight. These slides were stored at room temperature in a desiccator prior to use.
Mouse sera were diluted with 1% BSA/PBST buffer (PBST buffer: PBS and 0.05% Tween-20, pH 7.4). The glycan microarray was blocked with 50 mM ethanolamine for 1 h at 0° C. and washed three times with PBST buffer before use. The serum dilutions were then introduced to the glycan microarray and incubated at 0° C. for 1 h. Next, Cy3-conjugated goat anti-mouse IgG (H+L), IgG1, IgG2a, IgG2b, IgG2c, IgG3, or anti-mouse IgM was added to the microarray slide and then sealed for 1 h incubation at 0° C. in the dark. Finally, the slides were washed three times with PBST, PBST washing buffer, and ddH2O in sequence. The slides were spin-dried for 5 minutes before scanned at 635 nm with a microarray fluorescence chip reader (GenePix 4300A; Molecular Devices Corporation). Scanned images were analyzed with GenePix Pro-6.0 analysis software (Axon Instruments, Union City, Calif., USA).

monoclonal RM2 antibody = experiment: Determination of surface dissociation constant (KD,surf) on glycan microarray; assay type: binding, mouse
Method: An expanded glycan array containing the synthesized hexasaccharide 1 and its analogs along with the other ninety glycans are incorporated to a glycan array for testing (Figure S4). All glycans were directly immobilized onto NHS-coated glass slides by taking an aliquot from a stock solution of sugar at a fixed concentration (100 μM). The assay involved an initial treatment with RM2 (a mouse IgM anti-RM2 monoclonal antibody, a kind gift from Prof. Saito), followed by incubation with a fluorescein-tagged anti mouse IgM secondary antibody against its primary antibody. After one hour incubation, the slides were washed with ddH2O twice and scanned to show the binding specificity of the antibody to printed oligosaccharides. […] To determine the dissociation the dissociation constants of RM2 and truncated analogs on the surface interacting with the antibody in a multivalent manner, the direct measurement method was experimented (Liang, P. H.; Wang, S. K.; Wong, C. H. J. Am. Chem. Soc. 2007, 129, 11177), using different concentrations of antibodies and printed sugars. […] At the printing concentrations from 100 μM to 6.25 μM, however, it was observed that the KD,surf values measured were narrowly distributed from the individual curves (FIG. 20 and Table 1). Using the same method, the KD,surf values were determined for the truncated RM2 analog 29 interacting with the antibody (FIG. 21 and Table S2).
The slides were spotted with solution of RM2 1 and 29 with concentrations 100, 50, 25, 12.5, and 6.25 μM 2 rows from top to bottom with 5 replicates horizontally placed in each grids. The glycan microarray was blocked with 50 mM ethanolamine for 1 h at 0° C. and washed three times with PBST buffer before use. The monoclonal RM2 antibody was diluted with 3% BSA/PBST buffer (PBST buffer: PBS and 0.05% Tween-20, pH 7.4). Next, Cy3-conjugated goat anti-mouse IgM antibody was added into the diluted solution to precomplex with primary antibody. The precomplexed solution was applied to each well and incubated at 0° C. for 1 h in the dark. Finally, the slides were washed by PBST washing buffer and ddH2O in sequence. The slides were spin-dried for 5 minutes before scanned at 635 nm with a microarray fluorescence chip reader (GenePix 4300A; Molecular Devices Corporation). Scanned images were analyzed with GenePix Pro-6.0 analysis software (Axon Instruments, Union City, Calif., USA).

[2] = system: RM2 (a mouse IgM anti-RM2 monoclonal antibody); experiment: Glycan array binding specificity of monoclonal antibody RM2; conditions: glycans printed at 100 μM; FIG. 11
Method: An expanded glycan array containing the synthesized hexasaccharide 1 and its analogs along with the other ninety glycans are incorporated to a glycan array for testing (Figure S4). All glycans were directly immobilized onto NHS-coated glass slides by taking an aliquot from a stock solution of sugar at a fixed concentration (100 μM). The assay involved an initial treatment with RM2 (a mouse IgM anti-RM2 monoclonal antibody, a kind gift from Prof. Saito), followed by incubation with a fluorescein-tagged anti mouse IgM secondary antibody against its primary antibody. After one hour incubation, the slides were washed with ddH2O twice and scanned to show the binding specificity of the antibody to printed oligosaccharides. […] To determine the dissociation the dissociation constants of RM2 and truncated analogs on the surface interacting with the antibody in a multivalent manner, the direct measurement method was experimented (Liang, P. H.; Wang, S. K.; Wong, C. H. J. Am. Chem. Soc. 2007, 129, 11177), using different concentrations of antibodies and printed sugars. […] Using the same method, the KD,surf values were determined for the truncated RM2 analog 29 interacting with the antibody (FIG. 21 and Table S2). […]

[3] = antibody RM2, glycan printed on microarray, read-out: KD, surf (nM) ± SD

SMILES: CC(=O)N[C@H]1[C@H](O[C@H]2[C@@H](O)[C@@H](CO)O[C@@H](OCCCCCN)[C@@H]2O)O[C@H](CO[C@]2(C(=O)O)C[C@H](O)[C@@H](NC(C)=O)[C@H]([C@H](O)[C@H](O)CO)O2)[C@@H](O)[C@@H]1O[C@@H]1O[C@H](CO)[C@H](O)[C@H](O)[C@H]1O [Compound 28, (2R,4S,5R,6R)-5-acetamido-2-(((2R,3S,4R,5R,6S)-5-acetamido-6-((2R,3R,4S,5S,6R)-2-(5-aminopentyloxy)-3,5-dihydroxy-6-(hydroxymethyl)tetrahydro-2H-pyran-4-yloxy)-3-hydroxy-4-((2R,3R,4S,5R,6R)-3,4,5-trihydroxy-6-(hydroxymethyl)tetrahydro-2H-pyran-2-yloxy)tetrahydro-2H-pyran-2-yl)methoxy)-4-hydroxy-6-((1R,2R)-1,2,3-trihydroxypropyl)tetrahydro-2H-pyran-2-carboxylic acid]
- binding of induced IgG antibodies to glycan [1]: weaker binding

SMILES: CC(=O)N[C@H]1[C@H](O[C@H]2[C@@H](O)[C@@H](CO)O[C@@H](OCCCCCN)[C@@H]2O)O[C@H](CO[C@]2(C(=O)O)C[C@H](O)[C@@H](NC(C)=O)[C@H]([C@H](O)[C@H](O)CO)O2)[C@@H](O)[C@@H]1O [Compound 27, (2R,4S,5R,6R)-5-acetamido-2-(((2R,3S,4R,5R,6S)-5-acetamido-6-((2R,3R,4S,5S,6R)-2-(5-aminopentyloxy)-3,5-dihydroxy-6-(hydroxymethyl)tetrahydro-2H-pyran-4-yloxy)-3,4-dihydroxytetrahydro-2H-pyran-2-yl)methoxy)-4-hydroxy-6-((1R,2R)-1,2,3-trihydroxypropyl)tetrahydro-2H-pyran-2-carboxylic acid]
- binding of induced IgG antibodies to glycan [1]: weaker binding
- binding of induced antibodies to glycan, microarray of STn, DSGG, RM2 antigen, analogs and fragments [1]: mainly bound

SMILES: CC(=O)NC1[C@H](O[C@@H]2[C@H](O)[C@@H](O)[C@H](O[C@H]3[C@H](O)[C@@H](CO[C@]4(C(=O)O)C[C@H](O)[C@@H](NC(C)=O)[C@H]([C@H](O)[C@H](O)CO)O4)O[C@@H](O[C@H]4[C@@H](O)[C@@H](CO)O[C@@H](OCCCCCN)[C@@H]4O)[C@@H]3NC(C)=O)O[C@@H]2CO)O[C@H](CO)[C@H](O)[C@@H]1O (stereo partly shown) [Compound 29]
- Fmax (monoclonal RM2 antibody; 29 on microarray, printing concentration 6.25 μM): 51,597
- Kd (monoclonal RM2 antibody; 29 on microarray, printing concentration 6.25 μM, read-out: KD, surf): 5.13 nM
- Fmax (monoclonal RM2 antibody; 29 on microarray, printing concentration 12.5 μM): 50,900
- Kd (monoclonal RM2 antibody; 29 on microarray, printing concentration 12.5 μM, read-out: KD, surf): 4.05 nM
- Fmax (monoclonal RM2 antibody; 29 on microarray, printing concentration 25 μM): 50,970
- Kd (monoclonal RM2 antibody; 29 on microarray, printing concentration 25 μM, read-out: KD, surf): 4.5 nM
- Fmax (monoclonal RM2 antibody; 29 on microarray, printing concentration 50 μM): 59,045
- Kd (monoclonal RM2 antibody; 29 on microarray, printing concentration 50 μM, read-out: KD, surf): 6.44 nM
- Fmax (monoclonal RM2 antibody; 29 on microarray, printing concentration 100 μM): 62,859
- Kd (monoclonal RM2 antibody; 29 on microarray, printing concentration 100 μM, read-out: KD, surf): 6.96 nM
- Kd (monoclonal RM2 antibody; [3]): 5.76 ± 1.14 nM
- binding of induced IgG antibodies to glycan [1]: weaker binding

SMILES: CC(=O)NC1C(O[C@@H]2OC(CO)[C@H](O)C(O[C@@]3(C(=O)O)CC(O)[C@H](NC(C)=O)C([C@H](O)[C@H](O)CO)O3)C2O)[C@H](O)C(CO[C@]2(C(=O)O)CC(O)[C@@H](NC(C)=O)C([C@H](O)[C@H](O)CO)O2)O[C@H]1OC1C(O)[C@H](OCCCCCN)OC(CO)[C@@H]1O (stereo partly shown) [Compound 30]
- binding of induced IgG antibodies to glycan [1]: weaker binding

SMILES: CC(=O)NC1C(OC2C(O)C(OCCCCCN)OC(CO)[C@H]2O)OC(CO[C@]2(C(=O)O)CC(O)[C@@H](NC(C)=O)C([C@H](O)[C@H](O)CO)O2)[C@@H](O)C1O (stereo partly shown) [Compound 34]
- binding of induced antibodies to glycan, microarray of STn, DSGG, RM2 antigen, analogs and fragments [1]: a lesser extent

SMILES: CC(=O)N[C@H]1[C@H](OCCCCCN)O[C@H](CO[C@]2(C(=O)O)C[C@H](O)[C@@H](NC(C)=O)[C@H]([C@H](O)[C@H](O)CO)O2)[C@@H](O)[C@@H]1O [Compound 33, (2R,4S,5R,6R)-5-acetamido-2-(((2R,3S,4R,5R,6R)-5-acetamido-6-(5-aminopentyloxy)-3,4-dihydroxytetrahydro-2H-pyran-2-yl)methoxy)-4-hydroxy-6-((1R,2R)-1,2,3-trihydroxypropyl)tetrahydro-2H-pyran-2-carboxylic acid]
- binding of induced antibodies to glycan, microarray of STn, DSGG, RM2 antigen, analogs and fragments [1]: a lesser extent

SMILES: CC(=O)N[C@H]1[C@H]([C@H](O)[C@H](O)CO)O[C@@](OC[C@H]2OC(O)[C@H](O)[C@@H](O)[C@H]2O)(C(=O)O)C[C@@H]1O (stereo partly shown) [NeuAcα2→6Gal, reference compound]
- binding of induced antibodies to glycan, microarray of STn, DSGG, RM2 antigen, analogs and fragments [1]: no detectable signal of binding

SMILES: CC(=O)N[C@@H]1[C@@H]([C@H](O)[C@H](O)CO)O[C@](O[C@@H]2[C@@H](O)[C@H](O[C@H]3[C@H](O)[C@@H](CO[C@]4(C(=O)O)C[C@H](O)[C@@H](NC(C)=O)[C@H]([C@H](O)[C@H](O)CO)O4)O[C@@H](O[C@H]4[C@@H](O)[C@@H](CO)O[C@@H](OCCCCCN)[C@@H]4O)[C@@H]3NC(C)=O)O[C@H](CO)[C@@H]2O[C@@H]2O[C@H](CO)[C@H](O)[C@H](O)[C@H]2NC(C)=O)(C(=O)O)C[C@H]1O [Compound 1]
- binding specificity of the antibody to printed oligosaccharides [2]: recognize hexasaccharide 1 specifically
- Fmax (monoclonal RM2 antibody; RM2 printing concentration 6.25 μM): 45,483
- Kd (monoclonal RM2 antibody; RM2 printing concentration 6.25 μM, read-out: KD, surf): 4.72 nM
- Fmax (monoclonal RM2 antibody; RM2 printing concentration 12.5 μM): 45,028
- Kd (monoclonal RM2 antibody; RM2 printing concentration 12.5 μM, read-out: KD, surf): 3.14 nM
- Fmax (monoclonal RM2 antibody; RM2 printing concentration 25 μM): 47,714
- Kd (monoclonal RM2 antibody; RM2 printing concentration 25 μM, read-out: KD, surf): 4.28 nM
- Fmax (monoclonal RM2 antibody; RM2 printing concentration 50 μM): 53,982
- Kd (monoclonal RM2 antibody; RM2 printing concentration 50 μM, read-out: KD, surf): 5.48 nM
- Fmax (monoclonal RM2 antibody; RM2 printing concentration 100 μM): 55,756
- Kd (monoclonal RM2 antibody; RM2 printing concentration 100 μM, read-out: KD, surf): 5.1 nM
- relative binding specificity of RM2 for the epitopes (monoclonal RM2 antibody; antibody RM2): RM2>pentasaccharide 29
- Kd (monoclonal RM2 antibody; [3]): 4.54 ± 0.903 nM
- binding of induced IgG antibodies to glycan [1]: strong binding
- binding of induced antibodies to glycan, microarray of STn, DSGG, RM2 antigen, analogs and fragments [1]: mainly bound

From patent US10086054B2, “RM2 antigens and use thereof” (ACADEMIA SINICA, priority 2013, dated 2018)
